What was measured:
mucin2 [1] = assay: Mucin2 fluorescent staining of jejunal sections, rat SAO model; assay type: in vivo; details: SAO 30 min, lumenal injection 30 min prior
Protocol: (§1) Male Wistar rats (250-300 g, Harlan Sprague Dawley Inc, Indianapolis, Ind.) were randomly assigned to each group (n=4 per group). Rats were kept on solid food restriction for 12 hours prior to surgery with water ad libitum. […] Sham groups were treated the same with the arteries separated but not ligated.
(§2) Perfluorocarbon groups: Perfluorodecalin (PFC) (Sigma-Aldrich, St Louis, Mo.) with oxygen, previously bubbled into the solution for 10 min, was injected into the lumen of the intestine 30 min prior SHAM or SAO surgery (SHAM+PFC+O2, SAO+PFC+O2). PFC without oxygen bubbled into the solution was injected 30 min prior SHAM or SAO surgery (SHAM+PFC, SAO+PFC).
(§3) ATP-MgCl2 groups: ATP-MgCl2 (Sigma-Aldrich), 25 mg/kg BW was injected in the lumen of the intestine 30 min prior to SHAM or SAO surgery (SHAM+ATP, SAO+ATP).
(§4) pH groups: Acidic saline (pH 5.5) injected in the lumen of the intestine 30 min prior SHAM surgery or HEPES buffer (20 mM) injected into the lumen of the intestine 30 min prior to SHAM or SAO surgery.
(§5) Free radicals groups: The hydroxyl radical scavenger, dimethylthiourea (DMTU, Sigma-Aldrich; 2.0 mg/g BW) was injected in the lumen of the intestine 30 min prior to SAO (SAO+DMTU).
(§6) Tissue cryosections: After euthanasia, jejunal sections (˜1 cm in length) were excised without removal of lumenal contents and suspended in Tissue-Tek O.C.T. Compound (Sakura Finetek, Torrance, Calif.), snap frozen in isopentane/liquid nitrogen, and stored at −80° C. for analysis. Cryosections (5 μm thickness) along the longitudinal axis of the villi were used throughout all experiments. Cryosections were fixed in 10% formalin solution and processed in a non-blinded fashion.
(§7) Mucin and lectin staining: The simultaneous visualization of lectins and mucin was carried out using Lectin GS-II from Griffonia simplicifolia, Alexa Fluor® 594 Conjugate (EnzChek®, Invitrogen, Carlsbad, Calif.) and specific antibody for mucin2 with FITC secondary antibody 1:10000 (Santa Cruz Biotechnology) and nuclei counterstaining with DAPI. Sections were observed on an inverted microscope (20× objective) using the appropriate fluorescent filters.

[2] = test system: MDA equivalents (TBARS) in jejunal homogenates; assay: Thiobarbituric Acid Reactive Substances (TBARS) assay, rat SAO model; assay type: in vivo; details: SAO 30 min; lumenal injection 30 min prior
Protocol: as §1, §2, §3
pH groups: Acidic saline (pH 5.5) injected in the lumen of the intestine 30 min prior SHAM surgery or HEPES buffer (20 mM) injected into the lumen of the intestine 30 min prior to SHAM or SAO surgery. […]
TBARS assay: Thiobarbituric Acid Reactive Substances (TBARS) was measured using the TBARS assay kit (Zeptometrix, Buffalo, N.Y.) according to manufacturer's protocol. […] Samples were centrifuged at 3000 rpm for 15 min and the supernatant were read at 530/550 (Ex/Em).

[3] = test system: trypsin activity in the intestinal wall; assay: In-situ zymography for trypsin activity in jejunal cryosections, rat splanchnic arterial occlusion (SAO) model; assay type: in vivo; details: lumenal injection 30 min prior
Protocol: as §1
Control groups: Animals with saline injection into the lumen of the intestine, 3 ml/100 g Body Weight (BW), 30 min prior to SHAM or SAO surgery.
as §2
ATP-MgCl2 groups: ATP-MgCl2 (Sigma-Aldrich), 25 mg/kg BW was injected in the lumen of the intestine 30 min prior to SHAM or SAO surgery (SHAM+ATP, SAO+ATP). […]
After 30 min SAO or sham surgery, the animals were euthanized (Beuthanasia®; 0.22 ml/kg BW, IV).
as §6
In-situ tissue zymography: In-situ zymography for trypsin activity in cryosections was assessed by measurement of fluorescence resulting from the proteolytic cleavage of the substrate (1 mM, Na-benzoyl-L-arginine-7-amido-methylcoumarin hydrochloride; Sigma-Aldrich) as described elsewhere with propidium iodine counterstaining (Sigma-Aldrich) (9). Slides were observed under an inverted microscope (20× and 60× objectives).

[4] = test system: ATP concentration in intestine homogenates; assay: ATP assay in intestine homogenates, rat SAO model; assay type: in vivo; details: lumenal injection 30 min prior
Protocol: as §1, §2, §3, §4, §5
ATP assay: ATP concentrations in intestine homogenates were measured using ATP fluorometirc assay kit (BioVision, Mountain View, Calif.) according to manufacturer's protocol. Briefly jejuna sections were homogenized with perchloric acid (BioVision), centrifuged at 15,000×G for 5 min at 4° C. Samples were mixed with ATP reaction mix, incubated for 30 min protected from light and the fluorescence was measured with 535/587 (Ex/Em).

intestinal villi hypoxia = assay: Hypoxia staining (pimonidazole, Hypoxyprobe-1) of intestinal villi, rat SAO model; assay type: in vivo; details: SAO 30 min; lumenal injection 30 min prior
Protocol: as §1, §2, §3, §4, §5
Hypoxia staining: In separate experiments tissue hypoxia was detected with Hypoxyprobe™-1 Kit (Natural Pharmacia International, Burlington, Mass., USA). This method utilizes a small molecular marker, pimonidazole, which after intravenous injection forms adducts with thiol containing proteins only in oxygen-starved cells. After general anesthesia as described above, pimonidazole-HCl (6 mg/100 g) was injected intravenously 30 min before SAO or SHAM; at 30 min the animal was euthanized and the jejuna section removed, embedded in O.C.T and frozen in liquid nitrogen. Then cryosections were immunostained using a rabbit antibody that binds to protein adducts of pimonidazole in hypoxic cells.

mucin2 [5] = assay: Western blot for mucin2 of intestine homogenates, rat SAO model; assay type: in vivo; details: SAO 30 min, lumenal injection 30 min prior
Protocol: as §1, §2, §3, §4, §5
(§8) Homogenates of intestine and lumenal contents: Jejunal segments were excised without removal of lumenal contents. For enzyme activity measurements, segments of intestine were homogenized with CelLytic™ (Sigma-Aldrich) without addition of protease inhibitors. For Western blot assays the intestine segments were homogenized as above in the presence of protease inhibitors (5 mM EDTA, 5 mM N-Ethylmaleimide, 25 mM iodoacetamide, 5 mM benzamidine, 300 mM acarbose, 5 mM 6-aminocaproic acid, 1 mM protease inhibitor cocktail, (Sigma-Aldrich). In separate experiments the small intestine of sham animals was excised, and the lumenal contents were flushed with 20 ml saline. Homogenates or lumenal contents were centrifuged (16,000 g for 15 min at 4° C.), the supernatant was collected and protein concentration was assessed with the bicinchoninic acid protein assay (Thermo Scientific).
(§9) Western blot: 20 μg of tissue homogenate were separated by SDS-PAGE. Membranes were incubated with primary antibodies as follows: mucin2, mucin13 and trypsin 1:1000 (Santa Cruz Biotechnology), pancreatic amylase 1:1000 (GeneTex, San Antonio, Tex.), intra- and extra-cellular domains of E-cadherin and TLR4 1:1000 (Abcam), intracellular domain of TLR4 1:1000 (Invitrogen). Secondary antibodies were diluted 1:20000 (Santa Cruz Biotechnology) and detected with Super Signal West Pico (Thermo Scientific). The exposed x-ray films were scanned and label intensity was measured using digital gel analysis (NIH ImageJ software).

[6] = test system: lectin staining (carbohydrate portion of mucin); assay: Lectin fluorescent staining (carbohydrate portion of mucin) of jejunal sections, rat SAO model; assay type: in vivo; details: SAO 30 min; lumenal injection 30 min prior
Protocol: as §1, §2, §3, §4, §5, §6, §7

mucin13 = assay: Western blot for mucin13 of intestine homogenates, rat SAO model; assay type: in vivo; details: SAO 30 min, lumenal injection 30 min prior
Protocol: as §1, §2, §3, §4, §5, §8, §9

shock = details: ATP infusion before and during shock, given prior to hemorrhage; cited from earlier work

ATP-MgCl2
mucin2 staining levels (mucin2 [1]): significantly lower as compared to the SHAM group with saline but was not statistically different from SHAM-ATP-MgCl2 | mucin2 staining levels (mucin2 [1]; listed as ATP): preservation of mucin2 staining | levels of MDA equivalents (TBARS) [2]: on average lower levels of MDA equivalents compared to SHAM or SAO, but they were not significant | trypsin activity in the intestinal wall ([3]; SAO 30 min): Low levels of trypsin activity | trypsin activity in the intestinal wall ([3]; SAO 30 min, listed as ATP): less trypsin activity in the wall as compared to the ischemic group with only lumenal saline | trypsin activity in the intestinal wall ([3]; SHAM surgery): minimal trypsin activity | ATP concentration in intestinal tissue homogenates ([4]; SAO 30 min): significantly increased the ATP concentration | ATP concentration in intestinal tissue homogenates ([4]; SHAM surgery): significantly increased the ATP concentration | hypoxia staining levels (intestinal villi hypoxia): significantly high levels of hypoxia staining as compared to SHAM groups | mucin2 protein levels (relative density, Western blot) (mucin2 [5]): the same mucin2 and mucin13 protein levels as the sham | mucin2 protein levels (relative density, Western blot) (mucin2 [5]; listed as ATP): preservation of mucin2 staining as well as protein levels of mucin2 and mucin13 | lectin staining levels [6]: significantly lower as compared to the SHAM and SHAM-ATP-MgCl2 | mucin13 protein levels / 17 kDa fragment (Western blot) (mucin13): the same mucin2 and mucin13 protein levels as the sham | mucin13 protein levels / 17 kDa fragment (Western blot) (mucin13; listed as ATP): preservation of mucin2 staining as well as protein levels of mucin2 and mucin13 | survival of animals (shock): improves the survival of animals
